Assay results from PMC10175918 (Communications Biology, 2023).
Where two headings read alike, the source gives them in different places.

Tests used:
Test in all cases: TGFα-shedding assay-based GPCR screening with chimeric Gα subunit proteins
Type in all cases: cell-based
348 GPCRs [1] = biological target: T1, 348 GPCRs (Homo sapiens, UniProt Q16602); conditions: 10µM, Favipiravir 100μM
T1 construct: expressed in transfected cells; host or cells: HEK293A

348 GPCRs [2] = biological target: T2, 348 GPCRs (Homo sapiens, UniProt P29275); conditions: 10µM, Favipiravir 100μM
T2 construct: expressed in transfected cells; host or cells: HEK293A
T2 sequence (P29275 1-332): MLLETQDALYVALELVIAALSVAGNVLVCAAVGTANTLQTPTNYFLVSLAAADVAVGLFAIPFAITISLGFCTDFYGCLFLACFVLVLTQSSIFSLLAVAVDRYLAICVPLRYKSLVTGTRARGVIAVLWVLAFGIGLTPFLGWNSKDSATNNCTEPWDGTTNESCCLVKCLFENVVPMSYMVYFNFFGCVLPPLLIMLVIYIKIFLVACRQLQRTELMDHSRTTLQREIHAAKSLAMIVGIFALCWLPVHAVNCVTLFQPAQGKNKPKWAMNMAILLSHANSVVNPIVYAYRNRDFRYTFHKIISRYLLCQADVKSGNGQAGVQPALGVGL

348 GPCRs [3] = biological target: 348 GPCRs (Homo sapiens, UniProt O43193); conditions: 10µM, Favipiravir 100μM
348 GPCRs [4] = biological target: T3, 348 GPCRs (Homo sapiens, UniProt Q01726)
T3 construct: expressed in transfected cells; host or cells: HEK293A

348 GPCRs [5] = biological target: T4, 348 GPCRs (Homo sapiens, UniProt O95800); conditions: 10µM, Favipiravir 100μM
T4 construct: expressed in transfected cells; host or cells: HEK293A

348 GPCRs [6] = biological target: T5, 348 GPCRs (Homo sapiens, UniProt P48145); conditions: 10µM, Favipiravir 100μM
T5 construct: expressed in transfected cells; host or cells: HEK293A
T5 sequence (P48145 1-328): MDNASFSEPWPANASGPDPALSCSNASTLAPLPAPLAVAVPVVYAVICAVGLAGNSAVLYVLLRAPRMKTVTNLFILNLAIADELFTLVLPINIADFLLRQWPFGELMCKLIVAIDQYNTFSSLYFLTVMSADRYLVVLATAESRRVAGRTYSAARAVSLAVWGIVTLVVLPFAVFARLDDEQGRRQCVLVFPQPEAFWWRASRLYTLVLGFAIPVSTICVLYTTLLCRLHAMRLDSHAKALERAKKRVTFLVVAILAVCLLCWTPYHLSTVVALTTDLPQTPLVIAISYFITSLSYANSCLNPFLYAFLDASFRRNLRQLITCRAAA

348 GPCRs [7] = biological target: T6, 348 GPCRs (Homo sapiens, UniProt P13945); conditions: 10µM, Favipiravir 100μM
T6 construct: expressed in transfected cells; host or cells: HEK293A

348 GPCRs [8] = biological target: 348 GPCRs (Homo sapiens, UniProt P30874); conditions: 10µM, Favipiravir 100μM
348 GPCRs [9] = biological target: T7, 348 GPCRs (Homo sapiens, UniProt P32245)
T7 construct: expressed in transfected cells; host or cells: HEK293A

348 GPCRs [10] = biological target: T8, 348 GPCRs (Homo sapiens, UniProt Q9NYW2); conditions: 10µM, Favipiravir 100μM
T8 construct: expressed in transfected cells; host or cells: HEK293A
T8 sequence (Q9NYW2 1-309): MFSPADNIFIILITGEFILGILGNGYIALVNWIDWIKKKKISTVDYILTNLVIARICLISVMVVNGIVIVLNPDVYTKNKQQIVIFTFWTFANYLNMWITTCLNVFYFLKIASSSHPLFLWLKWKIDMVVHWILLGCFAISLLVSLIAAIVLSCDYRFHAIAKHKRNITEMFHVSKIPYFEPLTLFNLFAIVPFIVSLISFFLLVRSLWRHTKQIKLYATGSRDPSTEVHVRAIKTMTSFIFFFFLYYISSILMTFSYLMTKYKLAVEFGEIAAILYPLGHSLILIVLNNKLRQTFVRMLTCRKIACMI

348 GPCRs [11] = biological target: T9, 348 GPCRs (Homo sapiens, UniProt P25024)
T9 construct: expressed in transfected cells; host or cells: HEK293A
T9 sequence (P25024 1-350): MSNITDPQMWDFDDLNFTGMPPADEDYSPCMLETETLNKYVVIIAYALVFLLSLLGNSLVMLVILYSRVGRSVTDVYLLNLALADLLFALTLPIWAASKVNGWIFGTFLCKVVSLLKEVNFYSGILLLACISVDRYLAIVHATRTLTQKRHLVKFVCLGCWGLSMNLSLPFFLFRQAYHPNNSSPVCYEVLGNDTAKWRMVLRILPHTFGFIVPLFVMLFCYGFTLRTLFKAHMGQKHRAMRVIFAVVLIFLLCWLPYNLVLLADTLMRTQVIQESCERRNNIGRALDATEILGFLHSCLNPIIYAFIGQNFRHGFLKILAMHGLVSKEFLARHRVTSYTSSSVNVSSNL

348 GPCRs [12] = biological target: T10, 348 GPCRs (Homo sapiens, UniProt Q969N4); conditions: 10µM, Favipiravir 100μM
T10 construct: expressed in transfected cells; host or cells: HEK293A
T10 sequence (Q969N4 1-342): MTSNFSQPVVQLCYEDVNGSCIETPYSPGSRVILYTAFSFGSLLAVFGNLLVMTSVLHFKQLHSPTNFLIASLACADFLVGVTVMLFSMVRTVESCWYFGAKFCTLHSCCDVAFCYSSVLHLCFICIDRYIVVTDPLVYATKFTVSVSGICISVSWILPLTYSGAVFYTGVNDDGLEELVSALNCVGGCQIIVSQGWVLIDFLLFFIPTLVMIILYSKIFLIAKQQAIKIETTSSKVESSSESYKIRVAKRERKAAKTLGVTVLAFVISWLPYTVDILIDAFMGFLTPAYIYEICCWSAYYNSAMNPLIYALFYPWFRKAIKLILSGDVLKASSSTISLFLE

[13] = CALCRL (calcitonin receptor-like receptor), read-out: % GPCR activation compared to TPA
[14] = ADORA2B (adenosine A2b receptor), read-out: % GPCR activation compared to TPA
[15] = MLNR (motilin receptor), read-out: % GPCR activation compared to TPA
[16] = GPCR MC1R (melanocyte-stimulating hormone receptor), read-out: % GPCR activation compared to TPA
[17] = GPR75 (G protein-coupled receptor 75), read-out: % GPCR activation compared to TPA
[18] = NPBWR1 (neuropeptides B and W receptor 1), read-out: % GPCR activation compared to TPA
[19] = ADRB3 (adrenoceptor beta 3), read-out: % GPCR activation compared to TPA
[20] = SSTR2 (somatostatin receptor 2), read-out: % GPCR activation compared to TPA
[21] = GPCR MC4R (melanocortin 4 receptor), read-out: % GPCR activation compared to TPA
[22] = TAS2R8 (taste receptor, type 2, member 8), read-out: % GPCR activation compared to TPA
[23] = GPCR CXCR1 (chemokine (C-X-C motif) receptor 1), read-out: % GPCR activation compared to TPA
[24] = TAAR8 (trace amine associated receptor 8), read-out: % GPCR activation compared to TPA
[25] = read-out: % GPCR activation compared to TPA, CALCRL (calcitonin receptor-like receptor)
[26] = read-out: % GPCR activation compared to TPA, ADORA2B (adenosine A2b receptor)
[27] = read-out: % GPCR activation compared to TPA, MLNR (motilin receptor)
[28] = read-out: % GPCR activation compared to TPA, GPCR MC1R (melanocyte-stimulating hormone receptor)
[29] = read-out: % GPCR activation compared to TPA, GPR75 (G protein-coupled receptor 75)
[30] = read-out: % GPCR activation compared to TPA, NPBWR1 (neuropeptides B and W receptor 1)
[31] = read-out: % GPCR activation compared to TPA, ADRB3 (adrenoceptor beta 3)
[32] = read-out: % GPCR activation compared to TPA, SSTR2 (somatostatin receptor 2)
[33] = read-out: % GPCR activation compared to TPA, GPCR MC4R (melanocortin 4 receptor)
[34] = read-out: % GPCR activation compared to TPA, TAS2R8 (taste receptor, type 2, member 8)
[35] = read-out: % GPCR activation compared to TPA, GPCR CXCR1 (chemokine (C-X-C motif) receptor 1)
[36] = read-out: % GPCR activation compared to TPA, TAAR8 (trace amine associated receptor 8)

Chain of 348 GPCRs (Homo sapiens, UniProt P30874) (P30874 whole entry): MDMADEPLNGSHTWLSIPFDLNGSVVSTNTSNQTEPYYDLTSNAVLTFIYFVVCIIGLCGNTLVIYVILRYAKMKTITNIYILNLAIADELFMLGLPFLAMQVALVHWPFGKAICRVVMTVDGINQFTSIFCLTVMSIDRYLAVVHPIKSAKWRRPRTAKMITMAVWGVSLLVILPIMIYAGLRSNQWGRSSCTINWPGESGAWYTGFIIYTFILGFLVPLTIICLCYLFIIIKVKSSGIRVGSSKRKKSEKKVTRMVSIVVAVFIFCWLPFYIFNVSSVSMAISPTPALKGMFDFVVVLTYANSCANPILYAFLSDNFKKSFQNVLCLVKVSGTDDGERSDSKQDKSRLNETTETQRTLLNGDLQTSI
T4 sequence (O95800 whole entry): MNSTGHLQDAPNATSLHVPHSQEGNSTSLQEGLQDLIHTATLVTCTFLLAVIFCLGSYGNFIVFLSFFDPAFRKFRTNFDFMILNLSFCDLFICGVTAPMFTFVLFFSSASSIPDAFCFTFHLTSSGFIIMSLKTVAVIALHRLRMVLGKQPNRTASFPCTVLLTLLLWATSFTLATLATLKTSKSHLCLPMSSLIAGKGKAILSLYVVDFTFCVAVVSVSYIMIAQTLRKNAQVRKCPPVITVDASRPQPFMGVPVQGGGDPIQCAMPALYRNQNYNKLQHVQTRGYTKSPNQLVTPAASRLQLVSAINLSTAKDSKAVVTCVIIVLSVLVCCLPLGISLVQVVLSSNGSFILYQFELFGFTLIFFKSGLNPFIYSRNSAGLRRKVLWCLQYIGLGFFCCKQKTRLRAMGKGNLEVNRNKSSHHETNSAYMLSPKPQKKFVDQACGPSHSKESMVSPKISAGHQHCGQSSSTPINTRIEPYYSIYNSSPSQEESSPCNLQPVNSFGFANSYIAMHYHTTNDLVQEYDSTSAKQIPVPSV
T6 sequence (P13945 whole entry): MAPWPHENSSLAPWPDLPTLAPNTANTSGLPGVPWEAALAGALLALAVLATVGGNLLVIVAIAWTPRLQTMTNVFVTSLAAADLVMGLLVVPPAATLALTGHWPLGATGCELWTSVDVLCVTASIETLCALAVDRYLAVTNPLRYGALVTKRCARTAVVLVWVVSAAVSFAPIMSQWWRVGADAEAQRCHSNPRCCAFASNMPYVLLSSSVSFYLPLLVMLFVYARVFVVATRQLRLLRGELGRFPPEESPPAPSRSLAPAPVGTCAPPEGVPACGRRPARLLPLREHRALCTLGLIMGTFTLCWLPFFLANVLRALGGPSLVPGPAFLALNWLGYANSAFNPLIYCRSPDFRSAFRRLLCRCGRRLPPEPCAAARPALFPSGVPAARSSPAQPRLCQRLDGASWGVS
Chain of 348 GPCRs (Homo sapiens, UniProt O43193) (O43193 whole entry): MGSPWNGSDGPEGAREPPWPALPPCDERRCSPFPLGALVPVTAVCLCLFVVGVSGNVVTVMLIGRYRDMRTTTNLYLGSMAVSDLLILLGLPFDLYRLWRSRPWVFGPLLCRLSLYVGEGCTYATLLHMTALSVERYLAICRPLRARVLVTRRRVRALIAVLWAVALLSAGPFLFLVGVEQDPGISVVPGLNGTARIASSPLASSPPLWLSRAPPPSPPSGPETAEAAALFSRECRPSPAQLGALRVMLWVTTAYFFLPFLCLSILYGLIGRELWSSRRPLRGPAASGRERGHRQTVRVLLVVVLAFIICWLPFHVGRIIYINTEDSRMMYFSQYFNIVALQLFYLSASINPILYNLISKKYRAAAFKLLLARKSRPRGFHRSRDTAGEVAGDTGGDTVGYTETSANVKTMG
T1 sequence (Q16602 23-461): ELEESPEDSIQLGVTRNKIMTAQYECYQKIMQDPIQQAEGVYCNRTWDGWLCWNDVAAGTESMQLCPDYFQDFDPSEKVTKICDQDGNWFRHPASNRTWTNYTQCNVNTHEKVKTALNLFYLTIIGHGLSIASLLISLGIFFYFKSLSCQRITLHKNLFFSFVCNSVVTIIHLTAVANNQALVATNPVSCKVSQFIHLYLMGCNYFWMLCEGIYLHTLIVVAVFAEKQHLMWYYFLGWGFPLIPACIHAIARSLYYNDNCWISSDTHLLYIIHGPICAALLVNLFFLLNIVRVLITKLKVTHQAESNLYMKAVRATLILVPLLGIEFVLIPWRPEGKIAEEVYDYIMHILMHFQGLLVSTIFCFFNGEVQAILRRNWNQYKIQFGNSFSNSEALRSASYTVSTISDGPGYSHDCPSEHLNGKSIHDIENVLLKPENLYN
T7 sequence (P32245 whole entry): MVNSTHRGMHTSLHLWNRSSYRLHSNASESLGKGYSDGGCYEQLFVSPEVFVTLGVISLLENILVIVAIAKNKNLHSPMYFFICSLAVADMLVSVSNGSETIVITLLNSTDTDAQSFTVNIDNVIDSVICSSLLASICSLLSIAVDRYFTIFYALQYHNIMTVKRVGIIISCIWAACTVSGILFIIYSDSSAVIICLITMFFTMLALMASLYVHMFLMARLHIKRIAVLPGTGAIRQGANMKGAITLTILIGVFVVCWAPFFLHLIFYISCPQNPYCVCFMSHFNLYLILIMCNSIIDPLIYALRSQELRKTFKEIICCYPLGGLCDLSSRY
T3 sequence (Q01726 whole entry): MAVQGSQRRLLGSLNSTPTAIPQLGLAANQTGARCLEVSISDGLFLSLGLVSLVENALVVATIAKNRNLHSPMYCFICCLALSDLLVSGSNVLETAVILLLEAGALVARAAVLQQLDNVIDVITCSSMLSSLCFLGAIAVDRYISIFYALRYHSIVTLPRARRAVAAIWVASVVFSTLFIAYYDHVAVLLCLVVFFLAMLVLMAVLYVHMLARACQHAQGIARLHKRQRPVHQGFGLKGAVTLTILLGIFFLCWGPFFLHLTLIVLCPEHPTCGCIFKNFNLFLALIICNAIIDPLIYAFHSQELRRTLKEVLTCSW

activation at 100 µM (348 GPCRs [1]; [13])	activation at 10 µM (348 GPCRs [2]; [14])	activation at 100 µM (348 GPCRs [3]; [15])	activation at 10 µM (348 GPCRs [4]; [16])	activation at 10 µM (348 GPCRs [5]; [17])	activation at 10 µM (348 GPCRs [6]; [18])	activation at 10 µM (348 GPCRs [7]; [19])	activation at 10 µM (348 GPCRs [8]; [20])	activation at 10 µM (348 GPCRs [9]; [21])	activation at 10 µM (348 GPCRs [10]; [22])	activation at 10 µM (348 GPCRs [11]; [23])	activation at 100 µM (348 GPCRs [12]; [24])	Structure (SMILES)	activation at 100 µM (348 GPCRs [1]; [25])	activation at 10 µM (348 GPCRs [2]; [26])	activation at 100 µM (348 GPCRs [3]; [27])	activation at 10 µM (348 GPCRs [4]; [28])	activation at 10 µM (348 GPCRs [5]; [29])	activation at 10 µM (348 GPCRs [6]; [30])	activation at 10 µM (348 GPCRs [7]; [31])	activation at 10 µM (348 GPCRs [8]; [32])	also measured
0.376%	1.2%	-7.84%	0.496%	2.27%	-1.75%	0.201%	-0.998%	2.19%	0.391%	-1.09%	-1.62%	N#C[C@@]1(c2ccc3c(N)ncnn23)O[C@H](CO)[C@@H](O)[C@H]1O [GS441524]									
-7.08%	1.67%	-4.07%		6.14%	-3.5%	-0.975%	-0.842%		-0.549%		0.473%	NC(=O)c1nc(F)cnc1O [favipiravir, 6-fluoro-3-hydroxy-2-pyrazinecarboxamide]									activation at 100 µM (348 GPCRs [4]; GPCR MC1R (melanocyte-stimulating hormone receptor), 100μM, read-out: % GPCR activation compared to TPA): -0.375%; activation at 100 µM (348 GPCRs [9]; GPCR MC4R (melanocortin 4 receptor), 100μM, read-out: % GPCR activation compared to TPA): 2.24%; activation at 100 µM (348 GPCRs [11]; GPCR CXCR1 (chemokine (C-X-C motif) receptor 1), 100μM, read-out: % GPCR activation compared to TPA): -1.26%
-2.18%	-1.6%	-1.09%	0.0444%	-9.47%	-7.02%	-0.737%	-0.658%	-1.93%	-0.417%	-2.06%	-0.135%	CC(C)C(=O)OC[C@H]1O[C@@H](n2ccc(NO)nc2=O)[C@H](O)[C@@H]1O [molnupiravir]									
												CCC(CC)COC(=O)[C@H](C)N[P@](=O)(OC[C@H]1O[C@@](C#N)(c2ccc3c(N)ncnn23)[C@H](O)[C@@H]1O)Oc1ccccc1 [remdesivir]	4.11%	1.79%	-3.19%	-0.549%	4.18%	-1.26%	-0.789%	0.304%	activation at 10 µM (348 GPCRs [9]; [33]): 3.44%; activation at 10 µM (348 GPCRs [10]; [34]): 0.189%; activation at 10 µM (348 GPCRs [11]; [35]): -0.838%; activation at 100 µM (348 GPCRs [12]; [36]): 0.465%
												CC(C)OC(=O)[C@H](C)N[P@](=O)(OC[C@H]1O[C@@H](n2ccc(=O)[nH]c2=O)[C@](C)(F)[C@@H]1O)Oc1ccccc1 [sofosbuvir]	-3.04%	0.00372%	-0.32%	0.575%	-12.7%	-6.08%	-0.333%	-1.14%	activation at 10 µM (348 GPCRs [9]; [33]): -2.6%; activation at 10 µM (348 GPCRs [10]; [34]): 0.759%; activation at 10 µM (348 GPCRs [11]; [35]): -0.0928%; activation at 100 µM (348 GPCRs [12]; [36]): -2.21%
